In paper PMC3097502, “Antitrypanosomal and Cytotoxic Activities of 22-Hydroxyclerosterol, a New Sterol from Allexis cauliflora (Violaceae)” (Scientia Pharmaceutica, 2011):

How the values were obtained:
[1] = tested on: Trypanosoma brucei brucei bloodstream form (strain 427); assay: Antitrypanosomal assay (LILIT, Alamar Blue, 72 h) on bloodstream forms; assay type: cell-based; details: for ED50, growth of Trypanosoma brucei (strain 427): bloodstream form, 72 h incubation, Alamar Blue
Description: (§1) Trypanosoma brucei brucei (strain 427) bloodstream forms were cultured in HMI-9 medium containing 10% heat-inactivated. The mammalian fibroblast cell line MRC-5 was grown in DMEM (Gibco) supplemented with 10% heat-inactivated FBS and extra glutamine. Cells were grown at 37 °C in humidified incubators in an atmosphere of 5% CO2 [13].
(§2) The assay performed, the long incubation low inoculation test (LITIT), was previously described by Räz et al., 1997 [14] with minor modifications by Baltz et al., 1985 [15]. To evaluate the selectivity of the in vitro antitrypanosomal activity, in vitro cytotoxicity tests were also performed. The same general method was used in order to facilitate the comparison.
(§3) The compounds were initially dissolved in DMSO at a concentration of 20 mg/ml and diluted with the medium. Series of dilution were done in 96-well plates; each dilution was tested in duplicate. Cells in suspension were thereafter added to each well at a density such as, after 72 h of incubation, in control wells the culture reached the end of logarithmic growth phase (T. brucei), or adhesive cells have formed a confluent monocellular film (mammal cells MRC-5). The highest concentration of DMSO was 0.5%. After 72 h of incubation, Alamar Blue, a marker of cell viability, was added in each well and fluorescence was quantified after a total incubation time of 76 h at an excitation wavelength of 530 nm and at an emission wavelength of 590 nm. ED50 values were calculated by linear interpolation. Assays with commercial drugs were also carried out in order to have reference values. All results represent average values obtained in at least three independent experiments, each experiment comprising a duplicate set of tests.

[2] = tested on: MRC-5 mammalian cells (fibroblasts); assay: Cytotoxicity assay (Alamar Blue, 72 h) on mammalian fibroblasts; assay type: cell-based; details: 72 h incubation
Description: as §1, §2, §3

PGI of T. brucei = PGI of T. brucei (Trypanosoma brucei brucei, UniProt P13377); assay: Enzymatic inhibition of glycolytic enzyme PGI (T. brucei); assay type: biochemical; details: for Ki’ PGI of T. brucei: binding to enzyme-substrate (F6P/PGI) complex
Sequence of PGI of T. brucei (P13377 whole entry): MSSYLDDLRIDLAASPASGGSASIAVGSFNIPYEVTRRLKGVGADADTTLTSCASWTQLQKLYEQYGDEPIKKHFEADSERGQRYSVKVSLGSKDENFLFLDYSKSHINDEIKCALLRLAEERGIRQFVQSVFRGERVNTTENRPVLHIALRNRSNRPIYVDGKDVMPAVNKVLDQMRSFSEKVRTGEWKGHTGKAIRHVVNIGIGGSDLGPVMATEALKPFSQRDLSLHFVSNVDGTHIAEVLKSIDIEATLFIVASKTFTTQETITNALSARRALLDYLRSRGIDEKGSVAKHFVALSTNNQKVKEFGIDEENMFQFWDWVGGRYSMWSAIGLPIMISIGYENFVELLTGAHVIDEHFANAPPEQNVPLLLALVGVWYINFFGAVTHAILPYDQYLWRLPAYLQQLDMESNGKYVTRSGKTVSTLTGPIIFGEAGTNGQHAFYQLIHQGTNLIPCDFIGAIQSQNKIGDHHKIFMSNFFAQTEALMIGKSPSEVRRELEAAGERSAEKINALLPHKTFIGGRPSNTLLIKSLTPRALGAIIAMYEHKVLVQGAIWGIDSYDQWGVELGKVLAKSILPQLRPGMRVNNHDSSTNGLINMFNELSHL

GAPDH of T. brucei = GAPDH of T. brucei (Trypanosoma brucei brucei, UniProt P22512); assay: Enzymatic inhibition of GAPDH (T. brucei); assay type: biochemical
Sequence of GAPDH of T. brucei (P22512 whole entry): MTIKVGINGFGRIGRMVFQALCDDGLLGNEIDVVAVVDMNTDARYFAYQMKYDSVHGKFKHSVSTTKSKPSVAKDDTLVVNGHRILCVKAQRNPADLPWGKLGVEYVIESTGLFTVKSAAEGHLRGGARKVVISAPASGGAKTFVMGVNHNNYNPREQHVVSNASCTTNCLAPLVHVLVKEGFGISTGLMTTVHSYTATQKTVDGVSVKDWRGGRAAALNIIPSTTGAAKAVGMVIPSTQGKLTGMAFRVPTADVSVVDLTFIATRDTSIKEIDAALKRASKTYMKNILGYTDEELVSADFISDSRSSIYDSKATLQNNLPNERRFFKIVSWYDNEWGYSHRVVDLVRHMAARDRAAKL

[3] = target: PyK of Leishmania mexicana (Leishmania mexicana, UniProt Q27686); assay: Enzymatic inhibition of PyK (L. mexicana); assay type: biochemical
Sequence of PyK of Leishmania mexicana (Q27686 whole entry): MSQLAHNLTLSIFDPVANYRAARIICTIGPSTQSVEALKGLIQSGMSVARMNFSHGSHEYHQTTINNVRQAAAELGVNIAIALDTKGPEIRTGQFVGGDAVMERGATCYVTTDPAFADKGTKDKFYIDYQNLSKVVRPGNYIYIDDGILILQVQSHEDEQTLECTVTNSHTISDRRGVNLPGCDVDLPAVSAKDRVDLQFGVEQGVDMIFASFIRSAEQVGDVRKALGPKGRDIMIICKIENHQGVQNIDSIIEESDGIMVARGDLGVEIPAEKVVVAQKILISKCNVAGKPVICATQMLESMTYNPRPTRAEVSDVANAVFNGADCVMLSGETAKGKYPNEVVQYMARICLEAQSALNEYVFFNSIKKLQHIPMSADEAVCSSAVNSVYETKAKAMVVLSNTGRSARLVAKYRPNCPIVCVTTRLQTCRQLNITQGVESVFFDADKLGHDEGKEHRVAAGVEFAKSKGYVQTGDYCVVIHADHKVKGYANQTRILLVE

[4] = target: rabbit muscle pyruvate kinase (PyK) (Oryctolagus cuniculus, UniProt P11974); assay: Enzymatic inhibition of PyK (rabbit muscle); assay type: biochemical
Sequence of rabbit muscle pyruvate kinase (PyK) (P11974 whole entry): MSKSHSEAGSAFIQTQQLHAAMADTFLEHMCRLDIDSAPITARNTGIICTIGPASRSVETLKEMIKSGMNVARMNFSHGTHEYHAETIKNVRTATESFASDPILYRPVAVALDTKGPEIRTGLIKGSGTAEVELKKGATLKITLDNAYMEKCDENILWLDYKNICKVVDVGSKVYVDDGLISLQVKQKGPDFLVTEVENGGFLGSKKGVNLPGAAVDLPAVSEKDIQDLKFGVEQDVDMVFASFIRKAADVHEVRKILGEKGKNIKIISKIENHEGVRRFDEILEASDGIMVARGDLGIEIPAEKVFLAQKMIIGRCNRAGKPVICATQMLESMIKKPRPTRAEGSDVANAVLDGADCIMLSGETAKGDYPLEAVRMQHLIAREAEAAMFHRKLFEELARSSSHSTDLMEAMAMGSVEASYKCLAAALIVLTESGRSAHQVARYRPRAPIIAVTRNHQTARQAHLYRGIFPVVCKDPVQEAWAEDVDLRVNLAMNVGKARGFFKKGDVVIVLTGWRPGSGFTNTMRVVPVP

PGI Rabbit muscle = target: T1, PGI Rabbit muscle (Oryctolagus cuniculus, UniProt Q9N1E2); assay: Enzymatic inhibition of PGI (rabbit muscle); assay type: biochemical; details: n.i. = no inhibition observed at 50 μM
T1 construct: Rabbit muscle; from tissue; host or cells: rabbit muscle
Description: Tab. 3. Enzymatic inhibition (IC50, μM) | column: PGI / Rabbit muscle

GAPDH Rabbit muscle = target: T2, GAPDH Rabbit muscle (Oryctolagus cuniculus, UniProt P46406); assay: Enzymatic inhibition of GAPDH (rabbit muscle); assay type: biochemical; details: n.i. = no inhibition observed at 50 μM
T2 construct: Rabbit muscle; from tissue; host or cells: rabbit muscle
T2 sequence (P46406 whole entry): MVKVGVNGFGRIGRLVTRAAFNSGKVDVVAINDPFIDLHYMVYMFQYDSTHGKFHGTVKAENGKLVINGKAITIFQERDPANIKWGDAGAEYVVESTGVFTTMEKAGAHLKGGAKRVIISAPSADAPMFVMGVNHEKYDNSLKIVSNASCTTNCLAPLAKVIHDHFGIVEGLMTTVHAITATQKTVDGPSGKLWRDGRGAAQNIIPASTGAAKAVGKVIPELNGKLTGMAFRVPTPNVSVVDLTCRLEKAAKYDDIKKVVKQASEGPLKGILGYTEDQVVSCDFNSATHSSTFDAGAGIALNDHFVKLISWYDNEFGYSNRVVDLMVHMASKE
Description: Tab. 3. Enzymatic inhibition (IC50, μM) | column: GAPDH / Rabbit muscle

[5] = tested on: Trypanosoma brucei brucei bloodstream form (strain 427); parameters: method as in PMID 17637068; details: cited from earlier work
[6] = tested on: MRC-5 mammalian cells (fibroblasts); parameters: method as in PMID 17637068; details: cited from earlier work
[7] = n.i. = no inhibition observed at 50 μM

Compound: C=C(C)[C@@H](CC)CC(O)[C@@H](C)[C@H]1CC[C@H]2[C@@H]3CC=C4C[C@@H](O)CC[C@]4(C)[C@H]3CC[C@]12C (stereo partly drawn) [Compound 1, (3β,24S)-Stigmasta-5,25-diene-3,22-diol]
- ED50, growth of Trypanosoma brucei (strain 427) [1]: 1.56 µM
- fold more potent than compound 2 (ED50, T. brucei brucei growth) ([1]; ratio of ED50 values): 86 fold
- ED50, Mammalian cells (MRC-5 fibroblasts) [2]: 1.12 µM
- IC50 (PGI of T. brucei): 30 ± 10 µM
- affinity for F6P/PGI complex relative to affinity of natural substrate (F6P) for PGI (PGI of T. brucei; kinetic studies): 76 fold
- type of inhibition of PGI of T. brucei (PGI of T. brucei; kinetic studies): uncompetitive inhibitor
- Ki’ PGI of T. brucei (PGI of T. brucei; kinetic studies): 3 ± 1 µM
- IC50 (GAPDH of T. brucei): 30 ± 10 µM
- IC50 [3]: 30 ± 5 µM
- Ki [3]: 24 ± 5 µM
- Ki’ PyK of Leishmania mexicana ([3]; kinetic studies): 65 ± 10 µM
- type of inhibition of PyK of Leishmania mexicana ([3]; kinetic studies): mixed inhibitor
- Ki’ PyK of rabbit muscle ([4]; kinetic studies): 26 ± 3 µM
- type of inhibition of PyK of rabbit muscle ([4]; kinetic studies): uncompetitive inhibitor
- melting point: 166 to 168 °C

Compound: C=C(C)[C@@H](CC)CC[C@@H](C)[C@H]1CC[C@H]2[C@@H]3CC=C4C[C@@H](O)CC[C@]4(C)[C@H]3CC[C@]12C [Compound 2, (3β,24S)-Stigmasta-5,25-dien-3-ol]
- ED50, growth of Trypanosoma brucei (strain 427) [1]: 134.34 µM
- ED50, Mammalian cells (MRC-5 fibroblasts) [2]: no effect
- ED50, Mammalian cells (MRC-5 fibroblasts) ([2]; listed as compound 2): non toxic on mammalian cells
- IC50 (PGI of T. brucei): 45 ± 10 µM
- Ki (PGI of T. brucei): 10 ± 2 µM
- type of inhibition of PGI of T. brucei (PGI of T. brucei; kinetic studies): mixed inhibitor
- Ki’ PGI of T. brucei (PGI of T. brucei; kinetic studies): 68 ± 5 µM
- IC50 PGI Rabbit muscle (PGI Rabbit muscle): n.i.
- IC50 GAPDH T. brucei (GAPDH of T. brucei; [7]): n.i.
- IC50 GAPDH Rabbit muscle (GAPDH Rabbit muscle): n.i.
- IC50 PyK L. mexicana [3, 7]: n.i.
- IC50 PyK Rabbit muscle [4, 7]: n.i.
- antitrypanosomal activity (known) [5]: weak antitrypanosomal activity
- toxicity to mammalian cells (known) [6]: non toxic to mammalian cells
